This is an account of results in PubChem BioAssay (NCI).

Some test systems named below: HOP-92 NSCLC; OVCAR-5 ovarian; NCI-H460 lung; NCI/ADR-RES ovarian; A498 renal; SN12C renal; SW-620 colon; OVCAR-3 ovarian; OVCAR-8 ovarian; BT-549 breast; T-47D breast; SNB-19 CNS; UACC-62 melanoma; CCRF-CEM leukemia; HCC-2998 colon; HL-60(TB) leukemia.
Holding throughout (assay): DTP human tumour cell line panel, 48 h

Structures are written as SMILES.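 Tested at 5 concentrations; 48 h exposure; 96-well plates; endpoints linearly interpolated, else capped at highest concentration. Definition used: TGI = concentration required for complete inhibition of growth.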

Regarding `CC(C)[Si](OC1=C(C(=O)N(C)c2ccccc2Cl)CCC1)(C(C)C)C(C)C`, the concentration for total growth inhibition (TGI) with HOP-92 NSCLC was determined as 32.7 µM; in the experiment on OVCAR-5 ovarian it was 21.6 µM; in the experiment with NCI-H460 lung it was 62.1 µM; in the experiment with NCI/ADR-RES ovarian, 30.4 µM; with A498 renal it was 30.7 µM; in the experiment with SN12C renal, 31.6 µM. Further, the TGI in the experiment with SW-620 colon turned out to be 46.9 µM; with OVCAR-3 ovarian it was 31.2 µM; in the experiment on OVCAR-8 ovarian it was 31 µM; in the experiment with BT-549 breast, 29.8 µM; with T-47D breast, 47.1 µM; in the experiment with SNB-19 CNS, 30 µM.
With `COC(=NCCC1=CCCCC1)OC`, the TGI in the experiment with HOP-92 NSCLC, with OVCAR-5 ovarian, with NCI-H460 lung, with UACC-62 melanoma, in the experiment with NCI/ADR-RES ovarian and with A498 renal was over 100 µM in each case. The TGI in the experiment on SW-620 colon, in the experiment with OVCAR-3 ovarian, in the experiment with OVCAR-8 ovarian, in the experiment on BT-549 breast, with CCRF-CEM leukemia and in the experiment with T-47D breast was over 100 µM each time. For the same compound, the TGI in the experiment with HCC-2998 colon was 39.9 µM; in the experiment with SNB-19 CNS, over 100 µM.
For the compound `O=C1CC(=O)c2c(Cl)sc(Cl)c21`, the TGI in the experiment on HOP-92 NSCLC was over 100 µM; in the experiment on OVCAR-5 ovarian it was over 100 µM; in the experiment on NCI-H460 lung it was over 100 µM; in the experiment with UACC-62 melanoma, over 100 µM; in the experiment on NCI/ADR-RES ovarian, over 100 µM; in the experiment with HL-60(TB) leukemia, 85.6 µM. The TGI with A498 renal, in the experiment with SN12C renal, in the experiment on SW-620 colon, with OVCAR-3 ovarian, in the experiment on OVCAR-8 ovarian and in the experiment with BT-549 breast was over 100 µM throughout. In addition, the TGI in the experiment with CCRF-CEM leukemia and with T-47D breast was over 100 µM in each case.
Turning to `CCCCNC(=O)Nc1c(C(N)=O)c2n(c1C(=O)OCC)CCCCC2`, the TGI in the experiment on HOP-92 NSCLC, in the experiment with NCI-H460 lung, in the experiment on UACC-62 melanoma, with NCI/ADR-RES ovarian, in the experiment with HL-60(TB) leukemia and in the experiment on A498 renal was over 100 µM throughout. Further, the total growth inhibition concentration (TGI) with SW-620 colon, in the experiment on OVCAR-8 ovarian, in the experiment on BT-549 breast, with CCRF-CEM leukemia, with T-47D breast and in the experiment with HCC-2998 colon was over 100 µM each time. Besides, the total growth inhibition concentration (TGI) with SNB-19 CNS was over 100 µM.
`C=C(C)[C@@]1(O)CCC[C@H]1NC(=O)OC(C)(C)C`: the TGI with HOP-92 NSCLC, in the experiment on OVCAR-5 ovarian, with NCI-H460 lung, in the experiment with NCI/ADR-RES ovarian, in the experiment with A498 renal and in the experiment on SN12C renal was over 100 µM throughout. Besides, the total growth inhibition concentration (TGI) in the experiment with SW-620 colon, with OVCAR-3 ovarian, with OVCAR-8 ovarian, in the experiment on BT-549 breast, in the experiment on CCRF-CEM leukemia and with T-47D breast was over 100 µM throughout. Further, the total growth inhibition concentration (TGI) with HCC-2998 colon and in the experiment with SNB-19 CNS was over 100 µM each time.
For the compound `Cc1c(CCCl)c(N=[N+]=[N-])n2c(nc3ccccc32)c1C#N`, the total growth inhibition concentration (TGI) in the experiment with HOP-92 NSCLC came to 2.61 µM; in the experiment with OVCAR-5 ovarian, 4.73 µM; in the experiment with NCI-H460 lung, 3.32 µM; with UACC-62 melanoma, 3.12 µM; with NCI/ADR-RES ovarian, 5.53 µM; in the experiment on HL-60(TB) leukemia, 2.6 µM. Also, the TGI in the experiment on A498 renal came out at 3.85 µM; in the experiment on SN12C renal, 3.13 µM; in the experiment with SW-620 colon, 1.21 µM; with OVCAR-3 ovarian, 3.15 µM; with OVCAR-8 ovarian it was 5.21 µM; with BT-549 breast, 2.1 µM. Further, the results for the TGI in the experiment with CCRF-CEM leukemia, in the experiment with T-47D breast and with SNB-19 CNS were 0.987 µM, 3.18 µM and 8.37 µM, respectively.
On to `Cc1c[nH]c(C(=O)O)c1-c1ccc2c(-c3ccccc3)nc3ccccc3n12`, for which the TGI was over 100 µM with HOP-92 NSCLC; over 100 µM in the experiment with OVCAR-5 ovarian; over 100 µM in the experiment on NCI-H460 lung; 42.5 µM in the experiment with UACC-62 melanoma; 48.1 µM with NCI/ADR-RES ovarian; 28.3 µM in the experiment with A498 renal. Moreover, the concentration for total growth inhibition (TGI) in the experiment with SN12C renal is over 100 µM; in the experiment on SW-620 colon it was over 100 µM; in the experiment with OVCAR-3 ovarian, 37.4 µM; with OVCAR-8 ovarian, over 100 µM; with BT-549 breast, over 100 µM; with CCRF-CEM leukemia, over 100 µM. In addition, the total growth inhibition concentration (TGI) is over 100 µM with T-47D breast and 56.9 µM in the experiment with HCC-2998 colon.
For `Cc1ccc2[nH]c3[nH]c(=O)[nH]c(=O)c3c2c1`, the concentration for total growth inhibition (TGI) with HOP-92 NSCLC, with OVCAR-5 ovarian, in the experiment on UACC-62 melanoma, with NCI/ADR-RES ovarian, with HL-60(TB) leukemia and in the experiment with A498 renal was over 100 µM throughout. Also, the total growth inhibition concentration (TGI) with SN12C renal, with SW-620 colon, in the experiment with OVCAR-3 ovarian, in the experiment on OVCAR-8 ovarian, in the experiment with BT-549 breast and in the experiment with CCRF-CEM leukemia was over 100 µM in each case. The TGI in the experiment with T-47D breast and with SNB-19 CNS was over 100 µM each time.
As to `O=[N+]([O-])c1cccc2nc3ccccc3c(NCCCN3CCOCC3)c12`, the TGI was found to be 0.0434 µM in the experiment with HOP-92 NSCLC; 0.0841 µM with OVCAR-5 ovarian; 0.0661 µM with NCI-H460 lung; 0.0326 µM in the experiment with UACC-62 melanoma; 0.341 µM in the experiment with NCI/ADR-RES ovarian; 0.157 µM in the experiment with HL-60(TB) leukemia. The TGI stood at 0.0377 µM with A498 renal; 0.0455 µM with SN12C renal; 0.686 µM with SW-620 colon; 0.0484 µM with OVCAR-3 ovarian; 0.141 µM in the experiment with OVCAR-8 ovarian; 0.115 µM in the experiment on BT-549 breast. The TGI with CCRF-CEM leukemia stood at 0.13 µM; with T-47D breast, 0.241 µM; in the experiment with SNB-19 CNS, 0.177 µM.
As to `CC(=O)O[C@H]1CC[C@@]2(C)C(=CC[C@@H]3[C@@H]2CC[C@]2(C)C(=N/O)/C(=C/c4ccc([N+](=O)[O-])cc4)C[C@@H]32)C1`, the TGI in the experiment with HOP-92 NSCLC was 62 µM; in the experiment with NCI-H460 lung, over 100 µM; in the experiment on UACC-62 melanoma it was 20.5 µM; in the experiment on NCI/ADR-RES ovarian it was over 100 µM; with HL-60(TB) leukemia, 66.1 µM; in the experiment on A498 renal, 25.5 µM. In addition, the total growth inhibition concentration (TGI) in the experiment on SN12C renal is 87.3 µM; with SW-620 colon, over 100 µM; in the experiment on OVCAR-3 ovarian, 11.3 µM; in the experiment on BT-549 breast, 14 µM; in the experiment with CCRF-CEM leukemia it was over 100 µM; in the experiment on T-47D breast, 2.46 µM. For the same compound, in the experiment on SNB-19 CNS, the TGI was 37.1 µM.
